{"source": "ChEMBL document CHEMBL1201862", "about": "“PubChem BioAssay data set” (2004)", "experiment_in_all_cases": "DTP human tumour cell line panel, 48 h", "key": {"OVCAR-4": {"system": "OVCAR-4"}, "HCC 2998": {"system": "HCC 2998"}, "MOLT-4": {"system": "MOLT-4"}, "786-0": {"system": "786-0"}, "ACHN": {"system": "ACHN"}, "BT-549": {"system": "BT-549"}, "LOX IMVI": {"system": "LOX IMVI"}, "SK-OV-3": {"system": "SK-OV-3"}, "UACC-62": {"system": "UACC-62"}, "M14": {"system": "M14"}, "UACC-257": {"system": "UACC-257"}, "T47D": {"system": "T47D"}, "Malme-3M": {"system": "Malme-3M"}, "NCI-H460": {"system": "NCI-H460"}, "PC-3": {"system": "PC-3"}, "MCF7": {"system": "MCF7"}, "OVCAR-5": {"system": "OVCAR-5"}, "RXF 393": {"system": "RXF 393"}, "HCT-15": {"system": "HCT-15"}, "NCI-H226": {"system": "NCI-H226"}, "SF-539": {"system": "SF-539"}, "SK-MEL-5": {"system": "SK-MEL-5"}, "IGROV-1": {"system": "IGROV-1"}, "SNB-19": {"system": "SNB-19"}, "UO-31": {"system": "UO-31"}, "MDA-MB-231": {"system": "MDA-MB-231"}, "K562": {"system": "K562"}, "CCRF-CEM": {"system": "CCRF-CEM"}, "SK-MEL-28": {"system": "SK-MEL-28"}, "COLO 205": {"system": "COLO 205"}, "MDA-MB-435": {"system": "MDA-MB-435"}, "NCI-H522": {"system": "NCI-H522"}, "TK-10": {"system": "TK-10"}, "OVCAR-3": {"system": "OVCAR-3"}, "Hs-578T": {"system": "Hs-578T"}, "CAKI-1": {"system": "CAKI-1"}, "HOP-92": {"system": "HOP-92"}, "A549": {"system": "A549"}, "SF-268": {"system": "SF-268"}, "HL-60": {"system": "HL-60"}, "EKVX": {"system": "EKVX"}, "KM12": {"system": "KM12"}, "NCI-H23": {"system": "NCI-H23"}, "SR": {"system": "SR"}, "SN12C": {"system": "SN12C"}, "MDA-N": {"system": "MDA-N"}, "NCI/ADR-RES": {"system": "NCI/ADR-RES"}, "OVCAR-8": {"system": "OVCAR-8"}, "SK-MEL-2": {"system": "SK-MEL-2"}, "SW-620": {"system": "SW-620"}, "HOP-62": {"system": "HOP-62"}, "HT-29": {"system": "HT-29"}, "SNB-75": {"system": "SNB-75"}, "HCT-116": {"system": "HCT-116"}, "U-251": {"system": "U-251"}, "RPMI-8226": {"system": "RPMI-8226"}, "DU-145": {"system": "DU-145"}, "SF-295": {"system": "SF-295"}}, "note": "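Exposure lasted 48 hours, with cells grown in 96-well plates and compounds tested at five concentrations. At the GI50, growth is halved.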 Activity calls are given as the source filed them. Cut-off read from the data, not from the text of the source: active = GI50 up to about 1.1 µM and inactive = higher."}
{"smiles": "O=C(NNC(=O)c1ccccc1SSc1ccccc1C(=O)NNC(=O)c1ccccc1S)c1ccccc1S", "values": [{"measurement": "GI50", "setting": "OVCAR-4", "result": "31.1 µM (inactive)"}, {"measurement": "GI50", "setting": "HCC 2998", "result": "48.2 µM (inactive)"}, {"measurement": "GI50", "setting": "MOLT-4", "result": "6 µM (inactive)"}, {"measurement": "GI50", "setting": "786-0", "result": "11.4 µM (inactive)"}, {"measurement": "GI50", "setting": "ACHN", "result": "19.3 µM (inactive)"}, {"measurement": "GI50", "setting": "BT-549", "result": "13.5 µM (inactive)"}, {"measurement": "GI50", "setting": "LOX IMVI", "result": "11.9 µM (inactive)"}, {"measurement": "GI50", "setting": "SK-OV-3", "result": "46.5 µM (inactive)"}, {"measurement": "GI50", "setting": "UACC-62", "result": "17.5 µM (inactive)"}, {"measurement": "GI50", "setting": "M14", "result": "17.7 µM (inactive)"}, {"measurement": "GI50", "setting": "UACC-257", "result": "27.7 µM (inactive)"}, {"measurement": "GI50", "setting": "T47D", "result": "9.16 µM (inactive)"}, {"measurement": "GI50", "setting": "Malme-3M", "result": "21.6 µM (inactive)"}, {"measurement": "GI50", "setting": "NCI-H460", "result": "10.4 µM (inactive)"}, {"measurement": "GI50", "setting": "PC-3", "result": "24.6 µM (inactive)"}, {"measurement": "GI50", "setting": "MCF7", "result": "15.2 µM (inactive)"}, {"measurement": "GI50", "setting": "OVCAR-5", "result": "44.5 µM (inactive)"}, {"measurement": "GI50", "setting": "RXF 393", "result": "64.9 µM (inactive)"}, {"measurement": "GI50", "setting": "HCT-15", "result": 9.16, "unit": "µM"}, {"measurement": "GI50", "setting": "NCI-H226", "result": "42.4 µM (inactive)"}, {"measurement": "GI50", "setting": "SF-539", "result": "13.8 µM (inactive)"}, {"measurement": "GI50", "setting": "SK-MEL-5", "result": "39.7 µM (inactive)"}, {"measurement": "GI50", "setting": "IGROV-1", "result": "11.6 µM (inactive)"}, {"measurement": "GI50", "setting": "SNB-19", "result": "26.2 µM (inactive)"}, {"measurement": "GI50", "setting": "UO-31", "result": "9.95 µM (inactive)"}, {"measurement": "GI50", "setting": "MDA-MB-231", "result": "19.6 µM (inactive)"}, {"measurement": "GI50", "setting": "K562", "result": "11.3 µM (inactive)"}, {"measurement": "GI50", "setting": "CCRF-CEM", "result": "1.29 µM (inactive)"}, {"measurement": "GI50", "setting": "SK-MEL-28", "result": "24.3 µM (inactive)"}, {"measurement": "GI50", "setting": "COLO 205", "result": "36.4 µM (inactive)"}, {"measurement": "GI50", "setting": "MDA-MB-435", "result": "16.1 µM (inactive)"}, {"measurement": "GI50", "setting": "NCI-H522", "result": "0.49 µM (active)"}, {"measurement": "GI50", "setting": "TK-10", "result": "51.8 µM (inactive)"}, {"measurement": "GI50", "setting": "OVCAR-3", "result": "31 µM (inactive)"}, {"measurement": "GI50", "setting": "Hs-578T", "result": "0.404 µM (active)"}, {"measurement": "GI50", "setting": "CAKI-1", "result": "12.9 µM (inactive)"}, {"measurement": "GI50", "setting": "HOP-92", "result": "39.2 µM (inactive)"}, {"measurement": "GI50", "setting": "A549", "result": "13.4 µM (inactive)"}, {"measurement": "GI50", "setting": "SF-268", "result": "4.24 µM (inactive)"}, {"measurement": "GI50", "setting": "HL-60", "result": "1.73 µM (inactive)"}, {"measurement": "GI50", "setting": "EKVX", "result": "15 µM (inactive)"}, {"measurement": "GI50", "setting": "KM12", "result": "30.5 µM (inactive)"}, {"measurement": "GI50", "setting": "NCI-H23", "result": "12.3 µM (inactive)"}, {"measurement": "GI50", "setting": "SR", "result": "5.35 µM (inactive)"}, {"measurement": "GI50", "setting": "SN12C", "result": "18.5 µM (inactive)"}, {"measurement": "GI50", "setting": "MDA-N", "result": "20 µM (inactive)"}, {"measurement": "GI50", "setting": "NCI/ADR-RES", "result": "20 µM (inactive)"}, {"measurement": "GI50", "setting": "OVCAR-8", "result": "16.3 µM (inactive)"}, {"measurement": "GI50", "setting": "SK-MEL-2", "result": "23.7 µM (inactive)"}, {"measurement": "GI50", "setting": "SW-620", "result": "12 µM (inactive)"}, {"measurement": "GI50", "setting": "HOP-62", "result": "25.9 µM (inactive)"}, {"measurement": "GI50", "setting": "HT-29", "result": "30.3 µM (inactive)"}, {"measurement": "GI50", "setting": "SNB-75", "result": "11.7 µM (inactive)"}, {"measurement": "GI50", "setting": "HCT-116", "result": "7.18 µM (inactive)"}, {"measurement": "GI50", "setting": "U-251", "result": "19.5 µM (inactive)"}, {"measurement": "GI50", "setting": "RPMI-8226", "result": "43.1 µM (inactive)"}, {"measurement": "GI50", "setting": "DU-145", "result": "6.55 µM (inactive)"}, {"measurement": "GI50", "setting": "SF-295", "result": "10.6 µM (inactive)"}]}
